Results on 60 molecules are retold here after patent US9718790B2, “Triazine derivative and pharmaceutical composition having an analgesic activity comprising the same” (SHIONOGI & CO., LTD., priority 2010, dated 2017).

The structures appear in SMILES notation.

What is called IC50 is the concentration needed to halve the response being measured.

The target in this assay is human P2X3 receptor (Homo sapiens (Human), UniProt P56373). The assay can be described thus: Evaluation of human P2X3 receptor inhibitory activity (Fluo-3 calcium fluorescence, FDSS 3000, ATP stimulation).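 Note: stimulus was 50 nM ATP with fluorescence followed for 3 min, and the response per well was peak post-ATP fluorescence divided by the reading at measurement start.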 Type of assay: cell-based.
Chain of human P2X3 receptor (P56373 whole entry): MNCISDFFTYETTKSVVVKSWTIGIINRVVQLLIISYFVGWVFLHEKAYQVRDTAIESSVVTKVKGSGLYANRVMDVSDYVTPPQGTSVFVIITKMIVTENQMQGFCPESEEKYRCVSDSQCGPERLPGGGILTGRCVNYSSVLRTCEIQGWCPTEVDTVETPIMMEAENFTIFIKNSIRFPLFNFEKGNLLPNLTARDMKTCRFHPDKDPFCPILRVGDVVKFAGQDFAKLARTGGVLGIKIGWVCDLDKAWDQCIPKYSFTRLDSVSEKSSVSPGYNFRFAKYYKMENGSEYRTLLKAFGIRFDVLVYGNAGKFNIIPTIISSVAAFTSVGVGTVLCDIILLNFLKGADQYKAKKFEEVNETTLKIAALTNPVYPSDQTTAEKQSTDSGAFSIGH
[1] abbreviates: human P2X3 receptor, Test Example 1.
[2] abbreviates: C6BU-1 cells stably expressing human P2X3 receptor, Fluo-3 fluorescence, FDSS 3000.

For the molecule `CCOC(=O)CCn1c(=O)[nH]/c(=N\c2ccc3oc(CC)c(C)c3c2)n(Cc2ccc(Cl)cc2)c1=O` [Compound I-1503], under setting [1], the IC50 is 12 nM. Still for that read-out and setting: to `CCOC(=O)CCn1c(=O)[nH]/c(=N\c2ccc3oc(CC)c(C)c3c2)n(Cc2ccc(C)cc2)c1=O` [Compound I-1504] belongs 5 nM; to `CCOC(=O)CCn1c(=O)[nH]/c(=N\c2ccc3nc(CC)sc3c2)n(Cc2ccc(Cl)cc2)c1=O` [Compound I-1505], 4 nM; to `CCOC(=O)CCn1c(=O)[nH]/c(=N\c2ccc3nc(CC)sc3c2)n(Cc2ccc(C)cc2)c1=O` [Compound I-1506], 2 nM. Same read-out and setting: to `CCc1oc2ccc(/N=c3\[nH]c(=O)n(CCC(=O)O)c(=O)n3Cc3ccc(Cl)cc3)cc2c1C` [Compound I-1507] belongs 15 nM. The same measure, in the same setting: to `CCc1oc2ccc(/N=c3\[nH]c(=O)n(CCC(=O)O)c(=O)n3Cc3ccc(C)cc3)cc2c1C` [Compound I-1508] belongs 18 nM; to `CCc1nc2ccc(/N=c3\[nH]c(=O)n(CCC(=O)O)c(=O)n3Cc3ccc(Cl)cc3)cc2s1` [Compound I-1509], 14 nM.

For the molecule `CCc1nc2ccc(/N=c3\[nH]c(=O)n(CCC(=O)O)c(=O)n3Cc3ccc(C)cc3)cc2s1` [Compound I-1510], under setting [1], the IC50 turned out to be 13 nM. `COC(=O)[C@@H](C)Cn1c(=O)[nH]/c(=N\c2ccc(CC3CC3)c(Cl)c2)n(Cc2ccc(C)cc2)c1=O` [Compound I-1511]: under setting [1], the IC50 stood at 29 nM. As for `Cn1cc(Oc2ccc(/N=c3\[nH]c(=O)n(CCC(=O)O)c(=O)n3Cc3ccc(Cl)cc3)cc2)ccc1=O` [Compound I-1512], the IC50 under setting [1] came to 13 nM. The same measure, in the same setting: to `Cc1ccc(Cn2c(=O)n(C[C@H](C)C(=O)O)c(=O)[nH]/c2=N\c2ccc(CC3CC3)c(Cl)c2)cc1` [Compound I-1513] belongs 10 nM. The same measure, in the same setting: in the case of `COC(=O)[C@@H](C)Cn1c(=O)[nH]/c(=N\c2ccc(OC3CC3)cc2)n(Cc2ccc(C)cc2)c1=O` [Compound I-1514] it was 24 nM. Same read-out and setting: to `COC(=O)[C@@H](C)Cn1c(=O)[nH]/c(=N\c2ccc(Oc3ccccc3)nc2)n(Cc2ccc(C)cc2)c1=O` [Compound I-1515] belongs 157 nM. On to `Cc1ccc(Cn2c(=O)n(C[C@H](C)C(=O)O)c(=O)[nH]/c2=N\c2ccc(OC3CC3)cc2)cc1` [Compound I-1516], for which the IC50 under setting [1] was determined as 49 nM. For the molecule `Cc1ccc(Cn2c(=O)n(C[C@H](C)C(=O)O)c(=O)[nH]/c2=N\c2ccc(Oc3ccccc3)nc2)cc1` [Compound I-1517], under setting [1], the IC50 worked out at 240 nM. In the case of `CCOC(=O)CCn1c(=O)[nH]/c(=N\c2ccc3nc(C)sc3c2)n(Cc2ccc(Cl)cc2)c1=O` [Compound I-1518], the IC50 under setting [1] was determined as 2 nM. Take `CCOC(=O)CCn1c(=O)[nH]/c(=N\c2ccc3nc(C)sc3c2)n(Cc2ccc(C)cc2)c1=O` [Compound I-1519]: the half-maximal inhibitory concentration (IC50) under setting [1] is 2 nM. On the same count and under the same terms, to `Cc1nc2ccc(/N=c3\[nH]c(=O)n(CCC(=O)O)c(=O)n3Cc3ccc(Cl)cc3)cc2s1` [Compound I-1520] belongs 32 nM. On to `Cc1ccc(Cn2c(=O)n(CCC(=O)O)c(=O)[nH]/c2=N\c2ccc3nc(C)sc3c2)cc1` [Compound I-1521], for which the IC50 under setting [1] was determined as 22 nM. On to `COC(=O)[C@@H](C)Cn1c(=O)[nH]/c(=N\c2ccc(Oc3ccc(OC)nc3)cc2)n(Cc2ccc(C)cc2)c1=O` [Compound I-1522], for which the 50% inhibitory concentration (IC50) under setting [1] is 5 nM. Still for that read-out and setting: in the case of `CCOC(=O)CCn1c(=O)[nH]/c(=N\c2ccc(Oc3ccc(OC)nc3)cc2)n(Cc2ccc(Cl)cc2)c1=O` [Compound I-1523] it was 3 nM; in that of `COC(=O)[C@@H](C)Cn1c(=O)[nH]/c(=N\c2ccc(CC(C)(C)O)c(Cl)c2)n(Cc2ccc(C)cc2)c1=O` [Compound I-1527], 5 nM; in that of `COC(=O)[C@@H](C)Cn1c(=O)[nH]/c(=N\c2ccc(CC(C)(C)F)c(Cl)c2)n(Cc2ccc(C)cc2)c1=O` [Compound I-1528], 32 nM.

With `COC(=O)[C@@H](C)Cn1c(=O)[nH]/c(=N\c2ccc(-c3noc(C)n3)cc2)n(Cc2ccc(Cl)cc2)c1=O` [Compound I-1529], under setting [1], the IC50 stood at 26 nM. On the same count and under the same terms, in the case of `Cc1nc(-c2ccc(/N=c3\[nH]c(=O)n(C[C@H](C)C(=O)O)c(=O)n3Cc3ccc(Cl)cc3)cc2)no1` [Compound I-1530] it was 93 nM; in that of `Cc1ccc(Cn2c(=O)n(C[C@H](C)C(=O)O)c(=O)[nH]/c2=N\c2ccc(CC(C)(C)F)c(Cl)c2)cc1` [Compound I-1531], 25 nM; in that of `Cc1ccc(Cn2c(=O)n(C[C@H](C)C(=O)O)c(=O)[nH]/c2=N\c2ccc(CC(C)(C)O)c(Cl)c2)cc1` [Compound I-1532], 25 nM. On the same count and under the same terms, in the case of `COc1ccc(Oc2ccc(/N=c3\[nH]c(=O)n(CCC(=O)O)c(=O)n3Cc3ccc(Cl)cc3)cc2)cn1` [Compound I-1533] it was 16 nM. As for `COc1ccc(Oc2ccc(/N=c3\[nH]c(=O)n(C[C@H](C)C(=O)O)c(=O)n3Cc3ccc(C)cc3)cc2)cn1` [Compound I-1534], the IC50 under setting [1] amounted to 5 nM. As to `O=C(O)CCn1c(=O)[nH]/c(=N\c2ccc(Oc3ccc(O)nc3)cc2)n(Cc2ccc(Cl)cc2)c1=O` [Compound I-1535], the concentration for half-maximal inhibition (IC50) under setting [1] is 28 nM. The same measure, in the same setting: to `Cc1ccc(Cn2c(=O)n(C[C@H](C)C(=O)O)c(=O)[nH]/c2=N\c2ccc(Oc3ccc(O)nc3)cc2)cc1` [Compound I-1536] belongs 24 nM; to `CCOC(=O)C1(Cn2c(=O)[nH]/c(=N\c3ccc4nc(C)sc4c3)n(Cc3ccc(Cl)cc3)c2=O)CC1` [Compound I-1537], 3 nM; to `CCOC(=O)C1(Cn2c(=O)[nH]/c(=N\c3ccc4oc(CC)c(C)c4c3)n(Cc3ccc(Cl)cc3)c2=O)CC1` [Compound I-1538], 17 nM.

As for `CCOC(=O)C1(Cn2c(=O)[nH]/c(=N\c3ccc4nc(CC)sc4c3)n(Cc3ccc(Cl)cc3)c2=O)CC1` [Compound I-1539], under setting [1], the IC50 was 4 nM. Same read-out and setting: to `CC(C)Cc1ccc(/N=c2\[nH]c(=O)n(C[C@H](C)C(=O)O)c(=O)n2Cc2ccc(Cl)cn2)cc1Cl` [Compound I-1540] belongs 52 nM; to `Cc1nc2ccc(/N=c3\[nH]c(=O)n(CC4COC(C)(C)OC4)c(=O)n3Cc3ccc(Cl)cc3)cc2s1` [Compound I-1542], 4 nM. On the same count and under the same terms, in the case of `CNC(=O)CCn1c(=O)[nH]/c(=N\c2ccc3nc(C)sc3c2)n(Cc2ccc(Cl)cc2)c1=O` [Compound I-1543] it was 6 nM; in that of `Cc1nc2ccc(/N=c3\[nH]c(=O)n(CC(CO)CO)c(=O)n3Cc3ccc(Cl)cc3)cc2s1` [Compound I-1544], 4 nM. `CCOC(=O)C1(Cn2c(=O)[nH]/c(=N\c3ccc4nc(C)sc4c3)n(Cc3ccc(C)cc3)c2=O)CC1` [Compound I-1545]: the IC50 under setting [1] is 3 nM. Same read-out and setting: to `CCOC(=O)C1(Cn2c(=O)[nH]/c(=N\c3ccc4oc(CC)c(C)c4c3)n(Cc3ccc(C)cc3)c2=O)CC1` [Compound I-1546] belongs 7 nM; to `CCOC(=O)C1(Cn2c(=O)[nH]/c(=N\c3ccc4nc(CC)sc4c3)n(Cc3ccc(C)cc3)c2=O)CC1` [Compound I-1547], 3 nM; to `C=COc1ccc(/N=c2\[nH]c(=O)n(C[C@H](C)C(=O)OC)c(=O)n2Cc2ccc(C)cc2)cc1Cl` [Compound I-1548], 5 nM. Take `C=COc1ccc(/N=c2\[nH]c(=O)n(C[C@H](C)C(=O)O)c(=O)n2Cc2ccc(C)cc2)cc1Cl` [Compound I-1549]: the IC50 under setting [1] amounted to 8 nM. The same measure, in the same setting: to `C=COc1ccc(N(C)c2nc(=O)n(C[C@H](C)C(=O)OC)c(=O)n2Cc2ccc(C)cc2)cc1Cl` [Compound I-1550] belongs 833 nM.

For the molecule `CCc1oc2ccc(/N=c3\[nH]c(=O)n(CC4(C(=O)O)CC4)c(=O)n3Cc3ccc(Cl)cc3)cc2c1C` [Compound I-1551], the IC50 under setting [1] amounted to 9 nM. On the same count and under the same terms, in the case of `Cc1nc2ccc(/N=c3\[nH]c(=O)n(CC4(C(=O)O)CC4)c(=O)n3Cc3ccc(Cl)cc3)cc2s1` [Compound I-1552] it was 15 nM; in that of `CCc1nc2ccc(/N=c3\[nH]c(=O)n(CC4(C(=O)O)CC4)c(=O)n3Cc3ccc(Cl)cc3)cc2s1` [Compound I-1553], 11 nM. For the molecule `Cc1ccc(Cn2c(=O)n(CC3(C(=O)O)CC3)c(=O)[nH]/c2=N\c2ccc3nc(C)sc3c2)cc1` [Compound I-1554], the IC50 under setting [1] was 14 nM.

Regarding `CCc1oc2ccc(/N=c3\[nH]c(=O)n(CC4(C(=O)O)CC4)c(=O)n3Cc3ccc(C)cc3)cc2c1C` [Compound I-1555], the IC50 under setting [2] worked out at 16 nM. Same read-out and setting: to `CCc1nc2ccc(/N=c3\[nH]c(=O)n(CC4(C(=O)O)CC4)c(=O)n3Cc3ccc(C)cc3)cc2s1` [Compound I-1556] belongs 11 nM; to `CCCc1nc2ccc(/N=c3\[nH]c(=O)n(CCC(=O)OCC)c(=O)n3Cc3ccc(C)cc3)cc2s1` [Compound I-1558], 8 nM. Same read-out and setting: to `CCOC(=O)CCn1c(=O)[nH]/c(=N\c2ccc3nc(C4CC4)sc3c2)n(Cc2ccc(C)cc2)c1=O` [Compound I-1559] belongs 5 nM. For `CCCc1nc2ccc(/N=c3\[nH]c(=O)n(CCC(=O)O)c(=O)n3Cc3ccc(C)cc3)cc2s1` [Compound I-1560], the IC50 under setting [2] is 51 nM. On the same count and under the same terms, in the case of `Cc1ccc(Cn2c(=O)n(CCC(=O)O)c(=O)[nH]/c2=N\c2ccc3nc(C4CC4)sc3c2)cc1` [Compound I-1561] it was 32 nM. On the same count and under the same terms, to `CCOC(=O)CCn1c(=O)[nH]/c(=N\c2ccc3nc(C(C)C)sc3c2)n(Cc2ccc(C)cc2)c1=O` [Compound I-1562] belongs 6 nM; to `Cc1ccc(Cn2c(=O)n(CCC(=O)O)c(=O)[nH]/c2=N\c2ccc3nc(C(C)C)sc3c2)cc1` [Compound I-1563], 31 nM; to `CCc1oc2ccc(/N=c3\[nH]c(=O)n(CC(=O)OC)c(=O)n3Cc3ccc(Cl)cc3)cc2c1C` [Compound I-1564], 13 nM. As to `CCc1oc2ccc(/N=c3\[nH]c(=O)n(CCNC(=O)C(F)(F)F)c(=O)n3Cc3ccc(Cl)cc3)cc2c1C` [Compound I-1565], under setting [2], the IC50 amounted to 8 nM. On the same count and under the same terms, in the case of `CCc1oc2ccc(/N=c3\[nH]c(=O)n(CCNC(C)=O)c(=O)n3Cc3ccc(Cl)cc3)cc2c1C` [Compound I-1566] it was 8 nM; in that of `CCc1oc2ccc(/N=c3\[nH]c(=O)n(CCCNC(=O)C(F)(F)F)c(=O)n3Cc3ccc(Cl)cc3)cc2c1C` [Compound I-1567], 12 nM.
